From patent US20070191336A1 (priority 2003, published 2007) come the findings set out here.

Structures are written as SMILES.

T1 sequence (Q16539 whole entry): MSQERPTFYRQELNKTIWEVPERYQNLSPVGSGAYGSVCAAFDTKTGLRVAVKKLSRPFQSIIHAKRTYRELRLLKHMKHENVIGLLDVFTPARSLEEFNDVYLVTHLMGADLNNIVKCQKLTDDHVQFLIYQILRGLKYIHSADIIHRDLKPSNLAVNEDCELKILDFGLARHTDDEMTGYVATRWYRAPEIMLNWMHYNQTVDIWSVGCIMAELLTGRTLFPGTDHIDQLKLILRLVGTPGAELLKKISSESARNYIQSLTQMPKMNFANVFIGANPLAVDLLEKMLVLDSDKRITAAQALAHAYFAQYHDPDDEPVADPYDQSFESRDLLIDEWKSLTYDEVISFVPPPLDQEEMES

One assay concerns the target T1, phospho p-38 alpha kinase (Homo sapiens, UniProt Q16539).
T1 construct: purchased Panvera
Put plainly: P-38 alpha kinase assay (spectrophotometric, pyruvate kinase/lactate dehydrogenase coupled). Type of assay: biochemical. The conditions noted are these: Table 3; rates from […] to 2 h time frame. On the procedure: In this assay, the oxidation of NADH was continuously measured spectrophometrically. […] The reaction was initiated by adding ATP. The absorption at 340 nm was monitored continuously for up to 4 hours at 30° C. on Polarstar Optima plate reader (BMG). The kinase activity (reaction rate) was calculated from the slope at the time frame from 1.5 h to 2 h.
For inhibition determinations, test compounds were incubated with the reaction mixture for ˜5 min before adding ATP to start the reaction. […] IC50 values were calculated from a series of % inhibition values determined at a range of concentrations of each inhibitor using Prism to process the data and fit inhibition curves. Generally, the rates obtained at the time frame of 1.5 h to 2 h were used for these calculations.
The compound `CC(C)(C)c1cc(NC(=O)Nc2ccccc2F)n(-c2cccc(CO)c2)n1` [Example 303, 1-{3-t-butyl-1-[3-(hydroxymethyl)phenyl]-1H-pyrazol-5-yl}-3-(2-fluorophenyl)urea] registered a half-maximal inhibitory concentration (IC50) of 89 nM.

On to `CC(C)(C)c1cc(NC(=O)Nc2ccccc2F)n(-c2ccc(CC(=O)O)cc2)n1` [Example 306, 2-(4-(3-t-butyl-5-(3-(2-fluorophenyl)ureido)-1H-pyrazol-1-yl)phenyl)acetic acid], for which it took 58 nM to reach half-maximal inhibition (IC50).

`CC(C)(C)c1cc(NC(=O)Nc2cccc(F)c2F)n(-c2ccc(CC(=O)O)cc2)n1` [Example 307, 2-(4-(3-t-butyl-5-(3-(2,3-difluorophenyl)ureido)-1H-pyrazol-1-yl)-phenyl)acetic acid] gave an IC50 of 49 nM. The IC50 values of the last two compounds are within 1.5-fold of each other.

In turn, `CC(C)(C)c1cc(NC(=O)Nc2cccc3ccccc23)n(-c2cccc(CN3C(=O)CCC3=O)c2)n1` [Example 308, 1-(3-t-butyl-1-{3-[(2,5-dioxopyrrolidin-1-yl)methyl]phenyl}-1H-pyrazol-5-yl)-3-(naphthalen-1-yl)urea] gave an IC50 of 120 nM.

Regarding `COc1cccc(-n2nc(C(C)(C)C)cc2NC(=O)Nc2ccc(F)cc2)c1` [Example 309, 1-(3-t-butyl-1-(3-methoxyphenyl)-1H-pyrazol-5-yl)-3-(4-fluorophenyl)urea], the IC50 came out at 300 nM. Compared with the last compound, the IC50 is about 2.5-fold higher.

`COc1cccc(-n2nc(C(C)(C)C)cc2NC(=O)Nc2cccc(F)c2)c1` [Example 310, 1-(3-t-butyl-1-(3-methoxyphenyl)-1H-pyrazol-5-yl)-3-(3-fluorophenyl)urea] yielded an IC50 of 130 nM. Compared with the last compound, the IC50 is about 2.3-fold lower.

For the compound `COc1cccc(-n2nc(C(C)(C)C)cc2NC(=O)Nc2cccc(Cl)c2)c1` [Example 311, 1-(3-t-butyl-1-(3-methoxyphenyl)-1H-pyrazol-5-yl)-3-(3-chlorophenyl)urea], the IC50 stood at 182 nM.

`COc1cccc(-n2nc(C(C)(C)C)cc2NC(=O)Nc2cccc(Br)c2)c1` [Example 312, 1-(3-t-butyl-1-(3-methoxyphenyl)-1H-pyrazol-5-yl)-3-(3-bromophenyl)urea] yielded an IC50 of 349 nM.

As for `COc1cccc(-n2nc(C(C)(C)C)cc2NC(=O)Nc2cccc(C)c2)c1` [Example 313, 1-(3-t-butyl-1-(3-methoxyphenyl)-1H-pyrazol-5-yl)-3-m-tolylurea], the half-inhibitory concentration (IC50) is 250 nM.

In the case of `COc1cccc(-n2nc(C(C)(C)C)cc2NC(=O)Nc2ccc(C(F)(F)F)cc2)c1` [Example 314, 1-(3-t-butyl-1-(3-methoxyphenyl)-1H-pyrazol-5-yl)-3-(4-(trifluoromethyl)phenyl)urea], the IC50 came to 250 nM.

`COc1cccc(-n2nc(C(C)(C)C)cc2NC(=O)Nc2ccc(Cl)c(C(F)(F)F)c2)c1` [Example 316, 1-(3-t-butyl-1-(3-methoxyphenyl)-1H-pyrazol-5-yl)-3-(4-chloro-3-(trifluoromethyl)phenyl)urea] yielded a half-maximal inhibitory concentration (IC50) of 420 nM.

Compound `COc1cccc(-n2nc(C(C)(C)C)cc2NC(=O)Nc2ccc(Cl)c(Cl)c2)c1` [Example 317, 1-(3-t-butyl-1-(3-methoxyphenyl)-1H-pyrazol-5-yl)-3-(3,4-dichlorophenyl)urea] showed an IC50 of 68 nM. This IC50 lies about 6.2-fold lower than the previous one.

The compound `COc1cccc(-n2nc(C(C)(C)C)cc2NC(=O)Nc2ccc(Cl)cc2Cl)c1` [Example 318, 1-(3-t-butyl-1-(3-methoxyphenyl)-1H-pyrazol-5-yl)-3-(2,4-dichlorophenyl)urea] showed a half-inhibitory concentration (IC50) of 670 nM.

`COc1cccc(-n2nc(C(C)(C)C)cc2NC(=O)Nc2cc(Cl)cc(Cl)c2)c1` [Example 319, 1-(3-t-butyl-1-(3-methoxyphenyl)-1H-pyrazol-5-yl)-3-(3,5-dichlorophenyl)urea] displayed an IC50 of 320 nM. This IC50 is about 2.1-fold lower than that of the compound before.

`CC(C)(C)c1cc(NC(=O)Nc2ccc(Cl)cc2)n(-c2cccc(CN3C(=O)CCC3=O)c2)n1` [Example 320, 1-(3-t-butyl-1-{3-[(2,5-dioxopyrrolidin-1-yl)methyl]phenyl}-1H-pyrazol-5-yl)-3-(4-chlorophenyl)urea] yielded an IC50 of 790 nM.

`COc1cccc(-n2nc(C(C)(C)C)cc2NC(=O)Nc2ccc([N+](=O)[O-])cc2)c1` [Example 321, 1-(3-t-butyl-1-(3-methoxyphenyl)-1H-pyrazol-5-yl)-3-(4-nitrophenyl)urea] had a 50% inhibitory concentration (IC50) of 520 nM.

As to `COc1cccc(-n2nc(C(C)(C)C)cc2NC(=O)Nc2ccc(C#N)cc2)c1` [Example 322, 1-(3-t-butyl-1-(3-methoxyphenyl)-1H-pyrazol-5-yl)-3-(4-cyanophenyl)urea], the 50% inhibitory concentration (IC50) amounted to 2020 nM.

`COc1cccc(-n2nc(C(C)(C)C)cc2NC(=O)Nc2ccsc2)c1` [Example 327, 1-(3-t-butyl-1-(3-methoxyphenyl)-1H-pyrazol-5-yl)-3-(thiophen-3-yl)urea] returned a half-inhibitory concentration (IC50) of 810 nM.

The compound `COc1cccc(-n2nc(C(C)(C)C)cc2NC(=O)Nc2ccc3c(c2)OCO3)c1` [Example 329, 1-(benzo[d][1,3]dioxo-5-yl)-3-(3-t-butyl-1-(3-methoxyphenyl)-1H-pyrazol-5-yl)urea] registered an IC50 of 250 nM.

The compound `COc1cccc(-n2nc(-c3ccccc3)cc2NC(=O)Nc2cccc(Br)c2)c1` [Example 332] displayed a concentration for half-maximal inhibition (IC50) of 50 nM. This IC50 lies about 5-fold lower than the previous one.

`COc1cccc(-n2nc(-c3ccccc3)cc2NC(=O)Nc2cccc(C(F)(F)F)c2)c1` [Example 333] came in with a 50% inhibitory concentration (IC50) of 2440 nM.

The assay is the same for the next values; noted with them: read-out: % Inhibition @ concentration, Table 3; at 1 uM.
Consider `CCOC(=O)C(C)Cc1cccc(-n2nc(C(C)(C)C)cc2NC(=O)Nc2cccc3ccccc23)c1` (racemic) [Example 200], for which the inhibition at 1 µM was determined as 73%.

As for `COc1cccc(-n2nc(C(C)(C)C)cc2NC(=O)Nc2ccc(N(C)C)cc2)c1` [Example 323, 1-(3-t-butyl-1-(3-methoxyphenyl)-1H-pyrazol-5-yl)-3-(4-(dimethylamino)phenyl)urea], the inhibition at 1 µM was determined as 9%.

Staying with this assay, now noted: read-out: % Inhibition @ concentration, Table 3; at 10 uM.
`CC(C)(C)c1cc(NC(=O)Nc2ccc(F)cc2)n(-c2cccc(CCC(=O)O)c2)n1` [Example 146, 3-(3-{3-t-butyl-5-[3-(4-fluoro-phenyl)-ureido]-pyrazol-1-yl}-phenyl)-propionic acid]: the inhibition at 10 µM was determined as 9%.

As to `CCOC(=O)CCc1cccc(-n2nc(C(C)(C)C)cc2NC(=O)Nc2ccc(OC)cc2)c1` [Example 147, 3-(3-{3-t-butyl-5-[3-(4-methoxy-phenyl)-ureido]-pyrazol-1-yl}-phenyl)-propionic acid ethyl ester], the inhibition at 10 µM amounted to 27%.

In the case of `CC(C)(C)c1cc(NC(=O)c2nccc3ccccc23)n(-c2cccc(CCC(=O)O)c2)n1` [Example 150, 3-(3-{3-t-butyl-5-[(isoquinoline-1-carbonyl)-amino]-pyrazol-1-yl}-phenyl)-propionic acid], the inhibition at 10 µM came out at 53%.

In the case of `CCOC(=O)CCc1cccc(-n2nc(C(C)(C)C)cc2NC(=O)c2ccc3ccccc3c2)c1` [Example 154, 3-(3-{3-t-butyl-5-[(naphthalene-2-carbonyl)-amino]-pyrazol-1-yl}-phenyl)-propionic acid ethyl ester], the inhibition at 10 µM stood at 21%.

Turning to `CC(C)(C)c1cc(NC(=O)c2ccc3ccccc3c2)n(-c2cccc(CCC(=O)O)c2)n1` [Example 155], the inhibition at 10 µM worked out at 58%.

In the case of `COc1cccc(-n2nc(C(C)(C)C)cc2NC(=O)Nc2cccc(C(F)(F)F)c2)c1` [Example 315, 1-(3-t-butyl-1-(3-methoxyphenyl)-1H-pyrazol-5-yl)-3-(3-(trifluoromethyl)phenyl)urea], the inhibition at 10 µM came to 54%.

As to `COc1cccc(-n2nc(C(C)(C)C)cc2NC(=O)Nc2ccc(N(C)C)cc2)c1` [Example 323, 1-(3-t-butyl-1-(3-methoxyphenyl)-1H-pyrazol-5-yl)-3-(4-(dimethylamino)phenyl)urea], the inhibition at 10 µM stood at 51%.

Turning to `COc1cccc(-n2nc(C(C)(C)C)cc2NC(=O)Nc2cccc(N(C)C)c2)c1` [Example 324, 1-(3-t-butyl-1-(3-methoxyphenyl)-1H-pyrazol-5-yl)-3-(3-(dimethylamino)phenyl)urea], the inhibition at 10 µM was found to be 40%.

For `COc1cccc(-n2nc(C(C)(C)C)cc2NC(=O)Nc2cccc(C#N)c2)c1` [Example 325, 1-(3-t-butyl-1-(3-methoxyphenyl)-1H-pyrazol-5-yl)-3-(3-cyanophenyl)urea], the inhibition at 10 µM is 54%.

As for `COc1cccc(NC(=O)Nc2cc(C(C)(C)C)nn2-c2cccc(OC)c2)c1` [Example 326, 1-(3-t-butyl-1-(3-methoxyphenyl)-1H-pyrazol-5-yl)-3-(3-methoxyphenyl)urea], the inhibition at 10 µM worked out at 41%.

For the compound `COc1cccc(-n2nc(C(C)(C)C)cc2NC(=O)Nc2cccnc2)c1` [Example 328, 1-(3-t-butyl-1-(3-methoxyphenyl)-1H-pyrazol-5-yl)-3-(pyridin-3-yl)urea], the inhibition at 10 µM was determined as 68%.

On to `COc1cccc(-n2nc(-c3ccccc3)cc2NC(=O)Nc2cccc(Cl)c2)c1` [Example 331], for which the inhibition at 10 µM worked out at 71%.

The assay is the same for the next values; noted with them: read-out: % inhibition @ concentration, Table 2; at 10 uM.
For `CC1(C(=O)NCc2cccc(-n3nc(C(C)(C)C)cc3NC(=O)Nc3ccc(Cl)cc3)c2)CC2(C)CC(C)(C1)C(=O)NC2=O` (centres unmarked) [Example 10, 1,5,7-trimethyl-2,4-dioxo-3-aza-bicyclo[3.3.1]nonane-7-carboxylic acid 3-{3-t-butyl-5-[3-(4-chloro-phenyl)-ureido]-pyrazol-1-yl}benzylamide], the inhibition at 10 µM was determined as 83%.

In the case of `CC(C)(C)c1cc(NC(=O)Nc2cccc3ccccc23)n(-c2cccc(C(=O)N3C(=O)OC[C@H]3c3ccccc3)c2)n1` [Example 17, D-1-{5-tert-butyl-2-[3-(2-oxo-4-phenyl-oxazolidinyl-3-carbonyl)phenyl]-2H-pyrazol-3-yl}-3-(naphthalen-1-yl)urea], the inhibition at 10 µM turned out to be 40%.

As to `CC(C)(C)c1cc(NC(=O)Nc2cccc3ccccc23)n(-c2cccc(C(=O)N3C(=O)OC[C@@H]3c3ccccc3)c2)n1` [Example 18, L-1-{5-tert-butyl-2-[3-(2-oxo-4-phenyl-oxazolidinyl-3-carbonyl)phenyl]-2H-pyrazol-3-yl}-3-(naphthalen-1-yl)urea], the inhibition at 10 µM amounted to 60%.

In general, IC50 refers to the concentration at which inhibition is half-maximal. A lower IC50 goes with higher potency.
